Data published in patent US20050090520A1 (priority 2003, published 2005).
Read-outs that look alike come from different tables or passages of the source.

What was measured:
[1] = test system: adult neural stem cells (NSCs); assay: Intracellular ATP proliferation assay; format: cell-based, mouse; conditions: for Increase in intracellular ATP levels: 10 nM, 3 days
Method: (§1) The anterior lateral wall of the lateral ventricle of 5-6 week old mice was enzymatically dissociated at 37° C. for 20 min in 0.8 mg/ml hyaluronidase and 0.5 mg/ml trypsin in DMEM containing 4.5 mg/ml glucose and 80 units/ml DNase. The cells were gently triturated and mixed with three volumes of Neurosphere medium (DMEM/F12, B27 supplement, 125 mM HEPES Ph 7.4) containing 20 ng/ml EGF (unless otherwise stated), 100 units/ml penicillin, and 100 μg/ml streptomycin. After passing through a 70 μm strainer, the cells were pelleted at 160×g for 5 min. The supernatant was subsequently removed and the cells resuspended in Neurosphere medium supplemented as above, plated out in culture dishes and incubated at 37° C. Neurosphere cultures were ready to be split approximately 7 days after plating.
To split the neurosphere cultures, neurospheres were collected by centrifugation at 160×g for 5 min. The conditioned supernatant (conditioned medium) was removed and saved. The neurospheres were resuspended in 0.5 ml Trypsin/EDTA in HBSS (1×), incubated at 37° C. for 2 min, and triturated gently to aid dissociation. Following a further 3 min incubation at 37° C. and trituration, 3 volumes of ice cold NSPH-media-EGF were added to stop further trypsin activity. The cells were pelleted at 220×g for 4 min, and resuspended in a 1:1 mixture of fresh Neurosphere medium and conditioned medium. EGF was supplemented to 20 ng/ml and the culture plated out and incubated at 37° C.
(§2) The adherent cells were seeded at a density of 30,000 cells/well on poly-D-lysine in DMEM/F12 supplemented with 1% fetal calf serum (FCS).
The following experiment was performed in sets of four parallel experiments (i.e., performed in quadruplicate) so that the cells could be used for different assays. […] Cells were lysed with 0.1% Triton-X100 in Tris-EDTA buffer. Intracellular ATP was measured using an ATP-SL kit according to the manufacturer's instructions (BioThema, Sweden). […] For each experiment, wells were visually examined for signs of neurogenesis and counted to confirm the results of the assay. Results were repeatable and statistically significant.

S1P5 = S1P5 (Homo sapiens, UniProt Q9H228); conditions: Mandala et al., 2002; CHO cell membranes; read-out: Binding (IC50) S1P5; cited from earlier work
[2] = dogs; cited from earlier work
[3] = rat models; IDDB; cited from earlier work
[4] = monkeys; cited from earlier work
[5] = renal transplant patients, single oral dose 0.25-3 mg, whole blood, 96 hours; cited from earlier work
S1P2 = S1P2 (Homo sapiens, UniProt O95136); conditions: Mandala et al., 2002; CHO cell membranes; read-out: Binding (IC50) S1P2; cited from earlier work
S1P4 [6] = target: T1, S1P4 (Homo sapiens, UniProt O95977); conditions: Mandala et al., 2002; CHO cell membranes; read-out: Binding (IC50) S1P4; cited from earlier work
T1 sequence (O95977 1-384): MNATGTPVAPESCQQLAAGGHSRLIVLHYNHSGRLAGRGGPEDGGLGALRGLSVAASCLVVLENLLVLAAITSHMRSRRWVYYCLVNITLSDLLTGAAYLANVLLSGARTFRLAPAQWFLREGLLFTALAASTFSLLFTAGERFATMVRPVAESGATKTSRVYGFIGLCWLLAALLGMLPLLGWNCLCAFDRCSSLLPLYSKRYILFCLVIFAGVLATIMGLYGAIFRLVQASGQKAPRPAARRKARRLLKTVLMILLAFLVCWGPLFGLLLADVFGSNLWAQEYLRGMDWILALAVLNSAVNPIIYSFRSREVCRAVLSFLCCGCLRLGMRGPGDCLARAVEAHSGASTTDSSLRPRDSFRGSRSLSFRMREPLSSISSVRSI

S1P3 = S1P3 (Homo sapiens, UniProt Q99500); conditions: Mandala et al., 2002; CHO cell membranes; read-out: Binding (IC50) S1P3; cited from earlier work
[7] = primates, 3 mg/kg; IDDB; cited from earlier work
CYP4F3 = target: T2, CYP4F3 (Homo sapiens, UniProt Q08477); conditions: cited from earlier work
T2 sequence (Q08477 1-520): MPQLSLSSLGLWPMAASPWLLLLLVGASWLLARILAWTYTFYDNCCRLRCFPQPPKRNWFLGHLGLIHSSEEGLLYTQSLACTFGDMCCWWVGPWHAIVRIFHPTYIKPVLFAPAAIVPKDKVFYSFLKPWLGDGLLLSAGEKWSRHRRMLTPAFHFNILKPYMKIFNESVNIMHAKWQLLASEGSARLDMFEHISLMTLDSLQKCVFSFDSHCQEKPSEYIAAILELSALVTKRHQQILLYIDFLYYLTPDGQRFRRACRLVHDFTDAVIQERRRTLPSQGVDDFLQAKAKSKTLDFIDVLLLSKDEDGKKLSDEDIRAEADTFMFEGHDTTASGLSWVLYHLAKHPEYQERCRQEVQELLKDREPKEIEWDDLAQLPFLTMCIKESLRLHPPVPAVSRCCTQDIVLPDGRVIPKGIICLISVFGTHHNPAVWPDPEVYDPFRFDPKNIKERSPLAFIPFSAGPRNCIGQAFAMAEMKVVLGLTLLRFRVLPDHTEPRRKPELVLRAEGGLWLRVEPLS

[8] = dog models, dosages below 200 mg/kg; IDDB; cited from earlier work
[9] = test system: adult neural stem cells (NSCs); assay: Lactate dehydrogenase (LDH) cell death assay; format: cell-based, mouse; conditions: 3 days
Method: as §2
The death of cells that occurred during the 3 days was measured as leakage of lactate dehydrogenase (LDH) into the medium. […] The proportion of LDH in the medium to total LDH (medium+cells) gives the percentage of cell death. Treated and untreated cells can thus be compared to rule out apoptosis as the cause for the different results observed in the ATP proliferation assay. The amount of LDH was measured according to the instructions of the manufacturer, Promega, USA (see, also, Chen, et al., 2004).

[10] = cited from earlier work
[11] = test system: adult neural stem cells (NSCs); assay: BrdU incorporation proliferation assay; format: cell-based, mouse; conditions: 10 nM
Method: as §1
To split the neurosphere cultures, neurospheres were collected by centrifugation at 160×g for 5 min. The conditioned supernatant (conditioned medium) was removed and saved. The neurospheres were resuspended in 0.5 ml Trypsin/EDTA in HBSS (1×), incubated at 37° C. for 2 min, and triturated gently to aid dissociation. […]
DNA synthesis is commonly used to measure cell proliferation. […] After incorporation if the pyrimidine analogue into DNA, BrdU was detected by immunoassay. […]

[12] = rats, cited from earlier work
S1P4 [13] = target: T1, S1P4; conditions: read-out: Potency (EC50) S1P4, cited from earlier work

S1P3, sequence (Q99500 whole entry, species assumed): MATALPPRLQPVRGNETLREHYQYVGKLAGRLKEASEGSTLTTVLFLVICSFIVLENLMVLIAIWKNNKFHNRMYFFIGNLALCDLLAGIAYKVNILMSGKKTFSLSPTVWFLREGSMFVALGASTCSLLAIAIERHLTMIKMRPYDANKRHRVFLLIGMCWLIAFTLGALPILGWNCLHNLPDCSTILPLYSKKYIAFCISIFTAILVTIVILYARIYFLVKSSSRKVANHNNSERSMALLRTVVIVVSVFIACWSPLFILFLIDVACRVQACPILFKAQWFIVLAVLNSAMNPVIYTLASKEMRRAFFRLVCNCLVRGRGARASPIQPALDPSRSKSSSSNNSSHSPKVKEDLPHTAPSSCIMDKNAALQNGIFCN
S1P2, sequence (O95136 whole entry, species assumed): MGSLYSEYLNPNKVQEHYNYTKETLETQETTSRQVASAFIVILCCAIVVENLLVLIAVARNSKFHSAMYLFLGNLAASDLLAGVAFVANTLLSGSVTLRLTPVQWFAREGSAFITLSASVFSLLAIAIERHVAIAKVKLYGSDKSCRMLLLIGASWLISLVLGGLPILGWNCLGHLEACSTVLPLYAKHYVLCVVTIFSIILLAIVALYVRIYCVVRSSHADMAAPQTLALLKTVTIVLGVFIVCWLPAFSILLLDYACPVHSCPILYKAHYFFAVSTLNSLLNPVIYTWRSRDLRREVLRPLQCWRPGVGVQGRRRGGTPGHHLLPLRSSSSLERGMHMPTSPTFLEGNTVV
S1P5, sequence (Q9H228 whole entry, species assumed): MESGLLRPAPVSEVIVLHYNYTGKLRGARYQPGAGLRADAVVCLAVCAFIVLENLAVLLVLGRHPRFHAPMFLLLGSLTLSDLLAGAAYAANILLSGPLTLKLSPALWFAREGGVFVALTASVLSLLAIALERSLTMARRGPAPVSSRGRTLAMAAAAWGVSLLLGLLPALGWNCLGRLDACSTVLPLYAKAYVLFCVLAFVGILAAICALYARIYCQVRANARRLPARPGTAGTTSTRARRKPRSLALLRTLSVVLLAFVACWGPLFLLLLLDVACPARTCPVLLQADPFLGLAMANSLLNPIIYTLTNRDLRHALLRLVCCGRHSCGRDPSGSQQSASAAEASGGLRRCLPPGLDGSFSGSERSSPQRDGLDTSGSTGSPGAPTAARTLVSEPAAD

CCCCCCCCc1ccc(CCC(N)(CO)CO)cc1 [FTY720, 2-amino-2-[2-(4-octylphenyl)ethyl]-1,3-propanediol]
Concentration of maximum proliferation effect ([1]; FIG. 2): 0.04 nM | EC50 ([1]; Mus musculus, Neural stem cell, dose-response curve, FIG. 2, read-out: EC50 of in vitro proliferation of NSCs (ATP assay)): 0.02 nM | Increase in intracellular ATP levels ([1]; adherent cells): 42% | Increase in intracellular ATP levels ([1]; suspension cells): 25% | IC50 (S1P5): 2620 nM | Oral bioavailability [2]: 60% | LD50 [3]: 300 to 600 mg/kg | Oral bioavailability [4]: 40% | Absorption [5]: slowly absorbed | Cmax and AUC versus dose [5]: proportional to the dose | IC50 (S1P2): > 10000 nM | IC50 (S1P4 [6]): > 5000 nM | IC50 (S1P3): > 10000 nM | Toxicity [7]: no observed toxicity | Metabolic route (CYP4F3): metabolized primarily by CYP4F3 to the corresponding carboxylic acid | Deaths [8]: no deaths were observed | Change in LDH levels between control and treated cells [9]: No significant change | Adverse events ([10]; PI renal transplant patients, 0.25-3.5 mg single dose): no serious adverse events | Only observed side effect ([10]; orally administered for immunosuppression): mild and transient bradycardia | Increase in BrdU incorporation ([11]; adherent cells): 271% | Increase in BrdU incorporation ([11]; suspension cells): 52% | T1/2 ([12]; single oral dose 0.1 mg/kg): 18.1 h | T1/2 ([12]; single oral dose 1 mg/kg): 21.6 h | Oral bioavailability [12]: 80%

CCCCCCCCc1ccc(CCC(N)(CO)COP(=O)(O)O)cc1 (racemic) [FTY720P]
EC50 (S1P4 [13]; Brinkmann et al., 2002): 7.2 nM | EC50 (S1P4 [13]; Novartis data): 43 nM | IC50 (S1P4 [6]): 5.9 nM
